US9434695B2, “Nitrogenous heterocyclic derivatives and their application in drugs” (SUNSHINE LAKE PHARMA CO., LTD., priority 2012, dated 2016)

Assays:
[1] = system: BHK-21 cells; experiment: inhibition of BHK-21 cell proliferation (CCK-8, optical density at 450 nm); format: cell-based; details: for IC50: Mesocricetus auratus, inhibition ratio of cell proliferation, 48 hours after dosing, CCK-8; for The ratio with PFD (multiple): ratio of Pirfenidone IC50 from the compound IC50, the bigger the multiple, the better the vitro inhibitory activity, 48 hours
Description: Taking BHK-21 cells which in exponential growth phase, collecting and counting the cells which had digestive transfer culture after fusion growth 85-95%, adjusting the cell density to 2×10^4 cells per milliliter, seeding the cells into 96-well plates, 100 μl/well, the cells were incubated in a 5% CO2 incubator at 37° C.
The upper clear liquid of the 96-well plates was removed after the cells adhering to the wall 24 hours. The above compounds were confected into solutions of different concentration and the solutions were added to the wells, 100 μl/well. Each concentration solution in 3 replicates, the cells were subcultured 48 hours after dosing.
3. Testing the Optical Density
10 μl of CCK-8 solution was added to each well 48 hours after dosing, and incubated for 2 hours. The optical density (A) of each well was determined by a microplate reader at 450 nm wavelength. Calculating the inhibition ratio of cell proliferation of each compound is based on A and the inhibition ratio of cell proliferation (inhibition ratio, IR)=(1−value of experimental group (Ai)/value of control group (Ao))×100% and the IC50 of each compound at 48 hours was calculated by data processing software.

[2] = system: ECM gathering; details: animal experiments of renal fibrosis, pulmonary fibrosis; clinical trials of patients with specific lung fibrosis; cited from earlier work

Row | Structure (SMILES) | IC50 [1] | The ratio with PFD (multiple) [1] | effect on ECM gathering [2]
1 | Cc1cc(=O)n(-c2ccc(N3CCOCC3)c(F)c2)c(COc2cc(F)cc(F)c2)n1 [Example 50, 2-((3,5-difluorophenoxy)methyl)-3-(3-fluoro-4-morpholinophenyl)-6-methylpyrimidin-4(3H)-one] | 60 µM | 42.93 multiple | –
2 | Cc1cc(=O)n(-c2ccc(N3CCOCC3)c(F)c2)c(CSc2cccc(F)c2)n1 [Example 51, 3-(3-fluoro-4-morpholinophenyl)-2-(((3-fluorophenyl)thio)methyl)-6-methylpyrimidin-4(3H)-one] | 100 µM | 25.14 multiple | –
3 | Cc1cc(=O)n(-c2ccc(N3CCOCC3)c(F)c2)c(CCc2cccc(F)c2)n1 [Example 52, 3-(3-fluoro-4-morpholinophenyl)-2-(3-fluorophenethyl)-6-methylpyrimidin-4(3H)-one] | 180 µM | 14.15 multiple | –
4 | Cc1cc(=O)n(-c2ccc(N3CCOCC3)c(F)c2)c(CCCOc2cccc(F)c2)n1 [Example 53, 3-(3-fluoro-4-morpholinophenyl)-2-(3-(3-fluorophenoxy)propyl)-6-methylpyrimidin-4(3H)-one] | 500 µM | 15.49 multiple | –
5 | Cc1cc(=O)n(-c2ccc(N3CCN(C)CC3)c(F)c2)c(COc2cccc(F)c2)n1 [Example 55, 3-(3-fluoro-4-(4-methylpiperazin-1-yl)phenyl)-2-((3-fluorophenoxy)methyl)-6-methylpyrimidin-4(3H)-one] | 50 µM | 46.92 multiple | –
6 | Cc1cc(=O)n(-c2ccc(OCCN3CCOCC3)c(F)c2)c(COc2cccc(F)c2)n1 [Example 56, 3-(3-fluoro-4-(2-morpholinoethoxy)phenyl)-2-((3-fluorophenoxy)methyl)-6-methylpyrimidin-4(3H)-one] | 100 µM | 54.14 multiple | –
7 | Cc1cc(=O)n(-c2ccc(NCCN3CCOCC3)c(F)c2)c(COc2cccc(F)c2)n1 [Example 57, 3-(3-fluoro-4-((2-morpholinoethyl)amino)phenyl)-2-((3-fluorophenoxy)methyl)-6-methylpyrimidin-4(3H)-one] | 100 µM | 84.22 multiple | –
8 | Cc1cc(=O)n(-c2ccc(N3CCOCC3)c(F)c2)c(COC2CCCCC2)n1 [Example 58, 2-((cyclohexyloxy)methyl)-3-(3-fluoro-4-morpholinophenyl)-6-methylpyrimidin-4(3H)-one] | 290 µM | 26.37 multiple | –
9 | Cc1cc(=O)n(-c2ccc(N3CCOCC3)c(F)c2)c(COc2cccnc2)n1 [Example 59, 3-(3-fluoro-4-morpholinophenyl)-6-methyl-2-((pyridin-3-yloxy)methyl)pyrimidin-4(3H)-one] | 300 µM | 25.50 multiple | –
10 | Cc1cc(=O)n(-c2ccc(N3CCOCC3)c(F)c2)c(COc2cncc(F)c2)n1 [Example 60, 3-(3-fluoro-4-morpholinophenyl)-2-(((5-fluoropyridin-3-yl)oxy)methyl)-6-methylpyrimidin-4(3H)-one] | 540 µM | 13.72 multiple | –
11 | CCCCCCN(CCCCCC)c1ccc(-n2c(COc3cccc(F)c3)nc(C)cc2=O)cc1F [Example 62, 3-(4-(dihexylamino)-3-fluorophenyl)-2-((3-fluorophenoxy)methyl)-6-methylpyrimidin-4(3H)-one] | 310 µM | 24.68 multiple | –
12 | Cc1cc(=O)n(-c2ccc(N3CCOCC3)c(Cl)c2)c(COc2cccc(F)c2)n1 [Example 63, 3-(3-chloro-4-morpholinophenyl)-2-((3-fluorophenoxy)methyl)-6-methylpyrimidin-4(3H)-one] | 40 µM | 47.43 multiple | –
13 | Cc1cc(=O)n(-c2ccc(N3CCOCC3)c(Cl)c2)c(COc2cccc(Cl)c2)n1 [Example 64, 3-(3-chloro-4-morpholinophenyl)-2-((3-chlorophenoxy)methyl)-6-methylpyrimidin-4(3H)-one] | 190 µM | 10.69 multiple | –
14 | Cc1cc(=O)n(-c2ccc(N3CCOCC3)c(Cl)c2)c(COc2cccc(C#N)c2)n1 [Example 65, 3-((1-(3-chloro-4-morpholinophenyl)-4-methyl-6-oxo-1,6-dihydropyrimidin-2-yl)methoxy)benzonitrile] | 20 µM | 119.61 multiple | –
15 | Cc1cc(=O)n(-c2ccc(N3CCOCC3=O)c(F)c2)c(COc2cccc(F)c2)n1 [Example 66, 4-(2-fluoro-4-(2-((3-fluorophenoxy)methyl)-4-methyl-6-oxopyrimidin-1(6H)-yl)phenyl) morpholin-3-one] | 230 µM | 14.95 multiple | –
16 | Cc1cc(=O)n(-c2ccc(N3CCOCC3)c(Cl)c2)c(COc2ccc(Cl)c3ccccc23)n1 [Example 67] | 140 µM | 25.09 multiple | –
17 | C#Cc1cccc(OCc2nc(C)cc(=O)n2-c2ccc(N3CCOCC3)c(F)c2)c1 [Example 68] | 110 µM | 26.80 multiple | –
18 | Cc1cc(=O)n(-c2ccc(N3CCOCC3)c(F)c2)c(C(F)(F)Oc2cccc(F)c2)n1 [Example 69, 2-(difluoro(3-fluorophenoxy)methyl)-3-(3-fluoro-4-morpholinophenyl)-6-methylpyrimidin-4(3H)-one] | 90 µM | 42.03 multiple | –
19 | COc1cccc(OCc2nc(C)cc(=O)n2-c2ccc(N3CCOCC3)c(F)c2)c1 [Example 71, 3-(3-fluoro-4-morpholinophenyl)-2-((3-methoxyphenoxy)methyl)-6-methylpyrimidin-4(3H)-one] | 80 µM | 48.76 multiple | –
20 | Cc1ccc(=O)n(-c2ccccc2)c1 [pirfenidone, 5-methyl-1-phenyl-2-(1H)-pyridone] | – | – | could prevent ECM gathering, or even reverse it
